Assay results reported in ChEMBL document CHEMBL1629516, “Novel insights for dihydroorotate dehydrogenase class 1A inhibitors discovery” (Eur J Med Chem, 2010).
Active and inactive are the calls of the source. The rule behind the calls is not given here.

Tested on: Trypanosoma cruzi
Assay: (§1) Inhibition of Trypanosoma cruzi dihydroorotate dehydrogenase by isothermal titration calorimetry
Settings: not given

Question: For `Oc1nc(O)c2nc(O)[nH]c2n1`, which “Ki(app)” value is on record?
Answer: inactive

Question: For `O=C1OCc2c1[nH]c(=O)[nH]c2=O`, which “Ki(app)” value is on record?
Answer: inactive

Question: For `CCCCOC(=O)c1cc(O)nc(O)n1`, which “Ki(app)” value is on record?
Answer: inactive

Question: Which “Ki(app)” value does the source give for `O=c1[nH]c(=O)c2nn[nH]c2[nH]1` here?
Answer: inactive

Molecular target: not listed separately
Assay: as §1
Settings: read-out: Ki(app)

Question: For `CN(C)Cc1c(C(=O)O)[nH]c(=O)[nH]c1=O`, which Ki is on record?
Answer: 300 µM

Question: For `Nc1c(C(=O)O)[nH]c(=O)[nH]c1=O`, which Ki is on record?
Answer: 94.8 µM

Question: For `O=C(O)c1[nH]c(=O)[nH]c(=O)c1[N+](=O)[O-]`, which Ki is on record?
Answer: 139 µM

Question: Which Ki does the source give for `O=C(O)c1[nH]c(=O)[nH]c(=O)c1F` here?
Answer: 19.3 µM

Question: For `O=C(O)c1nc(=O)[nH]c(=O)[nH]1` [OTERACIL], which Ki is on record?
Answer: 21.7 µM

Question: Which Ki does the source give for `O=C(O)c1cc(=O)[nH]c(=O)[nH]1` [OROTIC ACID] here?
Answer: 72.2 µM

Molecular target: not listed separately
Assay: Inhibition of Leishmania major dihydroorotate dehydrogenase by isothermal titration calorimetry
Settings: read-out: Ki(app)

Question: For `Nc1c(C(=O)O)[nH]c(=O)[nH]c1=O`, which Ki is on record?
Answer: 82.8 µM

Question: For `O=C(O)c1[nH]c(=O)[nH]c(=O)c1[N+](=O)[O-]`, which Ki is on record?
Answer: 213 µM
